Measurements: paper PMC6015065, “Linear Cyclodextrin Polymer Prodrugs as Novel Therapeutics for Niemann-Pick Type C1 Disorder” (Scientific Reports, 2018)
Where two headings read alike, the source gives them in different places.

What was measured:
[1] = tested on: Calbindin in Purkinje cells of Npc1^nmf164 mice; experiment: Calbindin detection by immunofluorescence on cerebellar sections; assay type: in vivo; settings: 10 weeks-old Npc1^nmf164 mice, 800 mg/kg SC weekly from 2 weeks
Protocol: Sham-treated control mice were injected with plain PBS.
Brains were quickly dissected, fixed overnight at 4 °C in 4% PFA and processed as previously described[52]. Briefly, fixed brains were dehydrated by incubation in 15–30% sucrose in PBS, embedded in FSC 22 Clear Frozen Section Compound (Leica Biosystems, Milano, Italy) and serially sectioned (slice thickness 10 µm) using a cryostat (Leica CM 1900). Sagittal sections were mounted on X-tra Adhesive glass slides (Leica biosystems). Sections were processed for immunofluorescence using a mouse monoclonal Calbindin antibody (Anti-Calbindin D28K, Sigma, Milan, Italy; 1:500 dilution in PBS) as routinely performed in our lab. A permeabilization step performed by incubating sections in 0.1% Triton X-100 in PBS for 10 min was followed by a 3 h incubation in a blocking solution containing 5% goat serum, 1% BSA, 0.2% Triton X-100 in PBS. Sections were then incubated over night with a 1:500 primary antibody dilution in PBS and, after several washes with PBS, with a TRITC-conjugated anti-mouse secondary antibody (Zymed-Thermo Fisher Scientific, Milan, Italy).

[2] = in vivo; settings: BALB/c, mouse, sc, 500 mg/kg; for AUC(0-t): AUClast; for Kp: Tissue/Plasma Ratio
Protocol: The vehicle used for dissolution of test compounds was 0.9% Normal Saline. […] The formulations were prepared on the day of the study. The test compounds were administered at 100 mg/kg for the IV study and 500 mg/kg for the SC study. For the tissue distribution study, again 500 mg/kg was administered by the SC route.
Post dose, blood, or the relevant tissue in the case of the distribution study was collected at time points of 2 min, 5 min, 15 min, 30 min, 1 h, 2 h, 4 h, 24 h, 36 h and 48 h. From each mouse terminal blood samples were collected by cardiac puncture under isoflurane anaesthesia. The blood was collected in 2 ml Eppendorf tubes containing 0.020 ml of 10% K2EDTA, mixed gently and placed in ice before centrifugation. Plasma was harvested and stored at −80 °C. […] The PK analysis was performed using Non-compartmental methods in Phoenix WinNonlin 6.4 [Pharsight, Certara]. The mean concentration-time data were used for computing the PK parameters. The AUC was computed using the linear up-log down method. The following NCA parameters were estimated for the IV PK: Systemic Clearance [CL], Vss [Volume of distribution at steady state], first order elimination rate constant [ke], terminal half-life [t1/2], AUC0-t, AUC0-∞. For the SC PK study: Cmax, tmax, ke, t1/2, AUC0-t, AUC0-∞ and the absolute SC bioavailability [F] was estimated using the equation: F(%)=(AUCsc/AUCiv)∗(Doseiv/Dosesc)∗100

[3] = tested on: Npc1^nmf164 mice; set-up: method as in PMID 26888431; settings: HPβCD full dose 4000 mg/kg; cited from earlier work
[4] = tested on: Npc1^nmf164 mice; experiment: Early intervention efficacy study (treatment from 2 weeks of age); assay type: in vivo; settings: for Mean bodyweight: Npc1^nmf164 mice, 800 mg/kg SC weekly
Protocol: Control group mice received plain PBS (sham, group).
The body weight was recorded weekly and a score ranging from 0 to 5 was assigned to each mouse (Table 3) as previously performed. The motor co-ordination phenotype was assessed by the balance beam test every two weeks as previously described. Briefly, the mouse was placed perpendicularly at the center of a horizontal round beam (covered with paper tape, outer diameter 2 cm, length 1 m, divided into 10 sections and placed 50 cm above a padded surface) and the number of beam sections crossed in a 180 s time interval was recorded. Although the test relies on muscle strength and limb tone, it is well validated for the assessment of fine motor coordination and balance. […] The end-point of data collection was established as mouse weight approaching 13 g[40].

[5] = tested on: Npc1^nih/nih mice; settings: cited from earlier work
[6] = Pharmacokinetics after single subcutaneous dose (500 mg/kg); assay type: in vivo, BALB/c mice; settings: BALB/c, mouse, plasma
Protocol: (§1) LC/MS/MS (HPβCD) and HPLC-UV (ORX-301) were used for analysis in the studies. The bioanalytical method for HPβCD was linear, accurate, and precise in the concentration range of 5.4 and 500 µg/ml, with an LLOQ = 5.4 µg/ml, and met all the acceptance criteria.
(§2) Pharmacokinetic analysis and MTD studies were carried out in BALB/c mice purchased from Taconic Biosciences. Protocols and procedures of these studies were approved by the Institutional Animal Ethics Committee based on CPCSEA (India) guidelines.
(§3) Plasma was harvested and stored at −80 °C.

[7] = Pharmacokinetics after single intravenous dose (100 mg/kg); assay type: in vivo, BALB/c mice; settings: BALB/c, mouse
Protocol: as §1, §2, §3

[8] = cited from earlier work
[9] = 800 mg/kg SC weekly from 2 weeks of age

CC(O)COC[C@H]1O[C@@H]2O[C@H]3[C@H](O)[C@@H](O)[C@@H](O[C@H]4[C@H](O)[C@@H](O)[C@@H](O[C@H]5[C@H](O)[C@@H](O)[C@@H](O[C@H]6[C@H](O)[C@@H](O)[C@@H](O[C@H]7[C@H](O)[C@@H](O)[C@@H](O[C@H]8[C@H](O)[C@@H](O)[C@@H](O[C@H]1[C@H](O)[C@H]2O)O[C@@H]8COCC(C)O)O[C@@H]7COCC(C)O)O[C@@H]6COCC(C)O)O[C@@H]5COCC(C)O)O[C@@H]4COCC(C)O)O[C@@H]3COCC(C)O (stereo partly drawn) [HPβCD, 2-hydroxypropyl-β-cyclodextrin]
Calbindin staining of Purkinje cells [1]: markedly reduced Calbindin staining
AUC(0-t) ([2]; kidney): 2950 µg·h/mL
AUC(0-t) ([2]; liver): 127 µg·h/mL
AUC(0-t) ([2]; spleen): 828 µg·h/mL
Kp ([2]; kidney): 0.63
Kp ([2]; liver): 0.03
Kp ([2]; spleen): 0.18
mean lifespan [3]: 170 to 180 days
body weight loss progression [4, 9]: less severe and slower progressing weight loss
improvement of performance in the balance beam test [4, 9]: only temporarily observed up to 9-weeks of age
mean lifespan [4, 9]: 150 ± 2.55 days
improvement in mean survival ([4]; 800 mg/kg SC weekly from 2 weeks of age, vs sham-treated): 35%
Mean bodyweight ([4]; post-natal week 2): 7.43 ± 0.30 g
Mean bodyweight ([4]; post-natal week 3): 10.37 ± 0.33 g
Mean bodyweight ([4]; post-natal week 4): 13.31 ± 0.53 g
Mean bodyweight ([4]; post-natal week 5): 17.24 ± 0.65 g
Mean bodyweight ([4]; post-natal week 6): 18.58 ± 0.75 g
Mean bodyweight ([4]; post-natal week 7): 20.25 ± 0.84 g
Mean bodyweight ([4]; post-natal week 8): 20.85 ± 0.94 g
Mean bodyweight ([4]; post-natal week 9): 20.55 ± 1.03 g
Mean bodyweight ([4]; post-natal week 10): 19.92 ± 0.81 g
effect on lifespan ([5]; single injection at day 49, Npc1^nih/nih mice): did not significantly improve the lifespan
dosage required for improvement of survival ([5]; weekly injections started at day 42, Npc1^nih/nih mice): at least 1000 mg/kg
bioavailability ([6]; subcutaneous 500 mg/kg vs intravenous 100 mg/kg, read-out: Absolute Bioavailability): 42%
AUC(0-inf) ([6]; sc, subcutaneous 500 mg/kg): 4140 µg·h/mL
AUC(0-t) ([6]; sc, subcutaneous 500 mg/kg): 4020 µg·h/mL
Cmax ([6]; sc, subcutaneous 500 mg/kg): 4610 µg/mL
Tmax ([6]; sc, subcutaneous 500 mg/kg): 4.98 min
half-life ([6]; sc, subcutaneous 500 mg/kg): 16.7 h
concentration at 24 h ([7]; in vivo, iv, 100 mg/kg): 4.95 µg/mL
tlast ([7]; in vivo, iv, 100 mg/kg): 24 h
bioavailability ([7]; plasma, 500 mg/kg, printed under the Intravenous columns, read-out: Absolute Bioavailability): 42%
half-life ([7]; plasma, iv, 100 mg/kg, intravenous 100 mg/kg): ~14 h
clearance ([7]; plasma, single IV dose 100 mg/kg): 0.85 mL/min/kg
Vd ([7]; plasma, single IV dose 100 mg/kg, read-out: Vss): 0.18 L/kg
AUC(0-inf) ([7]; intravenous 100 mg/kg, plasma): 1960 µg·h/mL
AUC(0-t) ([7]; intravenous 100 mg/kg, plasma): 1860 µg·h/mL
Tmax ([7]; intravenous 100 mg/kg, plasma): 4.98 min
fraction that reaches the brain upon systemic administration ([8]; ref 25, 53): 0.2–1.5%
fraction that reaches the brain upon systemic administration ([8]; ref 25): less than 0.2%
